Measurements: ChEMBL document CHEMBL1130745, “Inhibitory effect and action mechanism of sesquiterpenes from Zedoariae Rhizoma on D-galactosamine/lipopolysaccharide-induced liver injury” (1998)

Columns and labels:
Format in all cases: functional
[1] = organism: Rattus norvegicus; assay: In vitro hepatocytotoxicity induced by D-GalN in primary cultured rat hepatocytes at a concentration of 10e-4 M; settings: Hepatocyte
[2] = system: Mus musculus; assay: In vivo inhibitory activity on the increase of serum GOT induced by D-GalN / LPS (liver injury) in mice at 50 mg/kg peroral administration; settings: route oral
[3] = system: Mus musculus; assay: In vivo inhibitory activity on the increase of serum GPT induced by D-GalN / LPS (liver injury) in mice at 50 mg/kg peroral administration; settings: route oral
[4] = organism: Mus musculus; assay: In vitro inhibitory activity on the production of nitric oxide (NO) induced by LPS in mouse peritoneal macrophages at a concentration of 10e-4 M
[5] = system: Mus musculus; assay: In vivo inhibitory activity on the increase of serum GOT induced by D-GalN / LPS (liver injury) in mice at 20 mg/kg peroral administration; settings: route oral

Compound | inhibition at 100 µM [1] | inhibition in vivo at 50 mg/kg [2] | inhibition in vivo at 50 mg/kg [3] | inhibition at 100 µM [4] | inhibition in vivo at 20 mg/kg [5]
C/C1=C\CC[C@H](C)C(=O)C[C@@H](C(C)C)C(=O)C1 | 77.1% | 74.6% | 76.6% | 2% | 
CC(C)=C1CC(=O)[C@@H](C)CC/C=C(\C)CC1=O | -6.3% | 46.2% | 49.7% | 53.7% | 
CC(=O)CC[C@H]1[C@@H]2CC(=C(C)C)C(=O)C[C@]12C | -12.2% | 88% | 90.1% | 13% | 
C=C1CC(=O)C(=C(C)C)CC2[C@H]1CC[C@]2(C)O (some centres undefined) | -5.2% | 22.3% | 26.7% | 54.5% | 
C/C1=C\CC[C@@H](C)C(=O)C[C@@H](C(C)C)C(=O)C1 | 44.6% | 58.4% | 59.3% | 41.9% | 
CC(C)=C1C/C=C(\C)CC/C=C(\C)CC1=O | 59.8% | 78.1% | 82.9% | 46.8% | 
CC1=CC(=O)C(=C(C)C)CC2[C@@](C)(O)CC[C@]12O (some centres undefined) | -41.5% | 89.1% | 88% | -8.8% | 
C/C1=C\CC[C@]2(C)O[C@H]2C(=O)c2c(C)coc2C1 | -7.9% | 35.4% | 39.5% | -5% | 
CC(C)=C1CC2[C@@H](CC[C@]2(C)O)[C@](C)(O)CC1=O (some centres undefined) | -35.6% | 54.7% | 60.7% | 31.7% | 
C/C1=C\C/C(=C(/C)CO)C(=O)C/C(C)=C/CC1 | -21.7% | 21.5% | 36.1% | -14.6% | 
CC1=CC2(O)O[C@@]3(CC2=C(C)C)[C@@H](C)CC[C@@H]13 (single isomer, unassigned) [CURCUMENOL] | 25.1% | 53.3% | 50.7% | 50.4% | 
C[C@]12CCC(=O)C=C1CCC1[C@@H]2[C@@H](O)C[C@@]2(C)[C@H]1CC[C@]2(O)C(=O)CO (single isomer, unassigned) [HYDROCORTISONE] |  |  | 99% | 92.6% | 98.3%
C=C1CC2(O)O[C@@]3(CC2=C(C)C)[C@@H](C)CC[C@@H]13 (single isomer, unassigned) [ISOCURCUMENOL] | 14.2% | 80.2% | 77.3% | 36.5% | 
COc1cc(/C=C/C(=O)CC(=O)/C=C/c2ccc(O)c(OC)c2)ccc1O [CURCUMIN] | -44.3% | 63.4% | 71.2% | 98.8% | 
C/C1=C\Cc2c(C)coc2C/C(C)=C/CC1 [ISOFURANODIENE] | -0.5% | 74.3% | 72.9% | 96.1% | 
